Assay results reported in patent publication US20260258397A1, “REAGENTS AND SYSTEMS FOR […]” (priority 2023, published 2026).
“And” between values parts separate entries of the source, which are not always exact repeats. Equal values may be shown once. Read-outs that look alike come from different tables or passages of the source.

Key:
[1] = Phosphatase activity of 6xHis-MBP-ΔN-HAB1 variants using p-NPP; assay type: biochemical; conditions: error 1 SEM
Description: FIG. 8: Assessment of stabilized, inactivated 6×His-MBP-ΔN-HAB1 variants. Experiments were repeated on two separate days using independently generated batches of protein. Error bars indicate 1 SD of 3 measurements. Sets of mutations for each variant are noted in Table 7. […] Fluorescence here refers to streptavidin-phycoerythrin.
(§1) Except where noted, all proteins were expressed as N-terminal 6×His-MBP fusions primarily using the medium and method as described in ref. 17. For crystallographic structures, PYL2 and ΔN-HAB1^T+ were expressed in E. coli and purified as described previously 27. Assays for phosphatase activity and apparent Tm, measured via thermal challenge using yeast surface display were performed essentially as previously described 17.

[2] = Apparent Tm of HAB1 variants by thermal challenge and yeast surface display of PYR1^M; assay type: physicochemical; conditions: YSD of PYR1^M, 500 nM ABA, 20 nM HAB1 variant
Protocol: as §1
Citrate-buffered saline was first prepared (CBS: 20 mM sodium citrate, 147 mM NaCl, 4.5 mM KCl). A portion of this CBS was removed and this aliquot was made into CBS^+++ by addition of freshly dissolved DTT to 1 mM, TCEP pH 8.0 to 1 mM, and MnCl2 to 10 mM followed by pH adjustment to 8.0 using 1 M sodium hydroxide. CBS^+++ was then sterile filtered and placed on ice. A further portion of CBS was removed and the above reagents were added in addition to bovine serum albumin at 0.2% w/v to produce CBSFF^+++, followed by adjustment of pH to 8.0 with 1 M sodium hydroxide and the solution was again sterile filtered and placed on ice. The remainder (and bulk) of the CBS was used to produce CBSF by addition of 0.1% w/v BSA with adjustment of pH to 8.0 using 1 M sodium hydroxide, and this solution was also sterile filtered, and 25 mL were retained at room temperature, with the bulk of the solution transferred to ice.
Determination of apparent Tm was performed using thermal melt. 130 AL of the ice-cold ammonium sulfate precipitates of HAB variants MBP-636 (“WT”), ΔN-HAB1^T+, MBP-724, MBP-725, and MBP-726 were pelleted in a microcentrifuge for 5 minutes at 17,000 g.
The supernatant was removed by pipette, discarded, and the pellet resuspended in an equivalent volume of ice-cold CBS^+++. Zeba™ spin desalting columns (Thermo) were equilibrated with CBS^+++ and the resuspended HABs were desalted and placed on ice. Each HAB was diluted to 400 nM concentration in CBS^+++ and aliquoted into PCR tubes at a 50 μL volume. These tubes were distributed into the blocks of a pair of Eppendorf Mastercycler X50i thermocyclers programmed for a thermal gradient as follows (in ° C.): (Machine #1 Gradient 30.0 to 60.0-30.0, 35.4, 39.3, 46.8, 50.6, 54.5, 60.0, Machine #2 Gradient 65.0 to 95.0-65.0, 70.4). The HAB aliquots were held at these temperatures for 30 minutes, followed by cooling to 4° C. in the thermocycler blocks. Once the aliquots had cooled, they were transferred to racks on ice and SO AL of CBSFF^+++ was added, such that each HAB was now at a concentration of 200 nM (10X) in CBSF^+++. The heat treated HAB aliquots were left on ice until the remainder of the labeling reactions were set up, about 1 hour. Labeling reactions were performed, measured, and analyzed as described previously (Steiner et al. 2020).

PYR1^M/ΔN-HAB1^T+ = target: T1, PYR1^M/ΔN-HAB1^T+ (Arabidopsis thaliana, UniProt O49686, H60P/N90S); assay: PYR1 ELISA-like plate assay, immobilized PYR1^M with biotinylated ΔN-HAB1^T+; assay type: binding; conditions: for Amax [AU 450 nm]: global parameter
T1 construct: made in house; host or cells: E. coli
T1 sequence (O49686 whole entry H60P/N90S, other chains not shown): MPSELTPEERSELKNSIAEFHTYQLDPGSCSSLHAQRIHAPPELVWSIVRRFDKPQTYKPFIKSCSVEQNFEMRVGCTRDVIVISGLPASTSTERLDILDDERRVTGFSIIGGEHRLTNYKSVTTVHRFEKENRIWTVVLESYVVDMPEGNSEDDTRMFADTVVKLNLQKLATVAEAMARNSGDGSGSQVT
Protocol: PYR1 was immobilized overnight in clear plates, blocked with KPL milk diluent in buffer CBS ^17 (CBSM). All binding reactions were performed using CBSM. Detection was performed via binding a streptavidin-HRP conjugate to biotinylated ΔN-HAB1^T+ followed by incubation with a commercial TMB reagent. Lower limits of detection (LODs) were determined by linear regression of the response data in the low linear range using the formula LOD=3σy/m, where m is the slope of the response line and σy is the standard error of the y intercept using data combined from biological replicates.
Unconjugated 6×His-MBP-PYR1 variants were immobilized to Microlon clear plates (655081) using 100 μL of CBS without pH modification, at a protein concentration of 100 μg mL^−1, or 1.57 AM at 4° C. overnight. Wells assigned as no PYR controls received only CBS. Plates were sealed using Microseal B adhesive sealers (BioRad MSB-1001). The following day, the solutions were decanted by flicking and all wells were washed twice with 300 μL of CBS. Blocking was performed using 300 μL of KPL milk diluent/concentrate (SeraCare 5140-0011) diluted 1:20 according to manufacturer's protocol, hereafter referred to as CBSM, incubated at room temperature for 2 hours, during which time all other components of the assays were diluted and assembled in 96 well PCR plates (Biorad HSP9601). Binding reactions were assembled from 88 μL of CBSM, 2 AL of 50× concentrate of ligand, dissolved in anhydrous ethanol for ABA, or anhydrous DMSO for all other compounds, with 10 μL of HAB to be added. Blocked plates were decanted by flicking and were washed twice with 300 μL of CBSM, followed by vigorous tamping on a pad of paper towels. The sole exception to the pre-assembly was biotinylated ΔN-HAB1^T+, where 130 AL of ammonium sulfate precipitate was pelleted at 17,000 g for 10 minutes, and the supernatant removed. The pellet was stored on ice until the blocked and washed plates were ready to receive the binding reactions. ΔN-HAB1^T+ was exchanged into CBSM with 1 mM DTT and 1 mM TCEP (CBSM++) using Zeba™ spin desalting columns (Thermo) were equilibrated with CBSM++. ΔN-HAB1^T+ was diluted to 10× the final binding reaction concentration and was immediately added to the pre-assembled assays in PCR plates, which were mixed by pipetting and transferred to the washed, blocked Microlon plates. Microlon plates were transferred to a plate shaker (Heidolph Titramax 1000) for 30 minutes at room temperature with shaking at 800 rpm. Plates were decanted by flicking and were washed three times with 300 μL of CBSM, followed by vigorous tamping on a pad of paper towels. Detection was enabled by addition of 100 μL of streptavidin-horseradish peroxidase (Thermo, SA10001), diluted 1:25,000 into CBSM, incubated in the above plate shaker for 10 minutes. This was decanted by flicking and washed three times with 300 AL of CBSM and by vigorous tamping on a pad of paper towels. Bound HAB was detected through addition of 50 μL 1-Step™ Ultra TMB-ELISA Substrate Solution (Thermo, 34028), incubated in the above plate shaker for 15 minutes (PYR1^M(N90S/H60P) with ABA, PYR1 ^WIN-M and PYR1^4F-M. in specificity assays to avoid overdevelopment of positive control), or for 30 minutes (PYR1^N90S/MANDI with mandipropamid, and PYR1^WIN-M and PYR1^4F-M under ligand titrations). TMB development was quenched by addition of 50 μL of 2M sulfuric acid and plates were read at 450 nm using a Biotek Synergy H1 Hybrid multimode plate reader. Estimates of Kd,eff were performed using Graphpad Prism 8.4.3 using the specific binding with Hill slope nonlinear regression function. Best fits for Kd1 and Kd2 were determined from global nonlinear fitting of the ELISA data using a custom script written in MatLab 2019b.

[3] = system: PYR1 mutant receptors (ligand-dependent binding to HAB1); assay: Yeast two-hybrid screens and optimization for organophosphate sensors; assay type: cell-based, Arabidopsis
Protocol: Surviving cells were collected and used in subsequent positive selections for ligand-responsive receptors on SD,-Leu,-Trp,-Ura media supplemented with a specific test chemical (100 μM) for responsiveness to any of the 10-member panel of organophosphate compounds: diazinon, pirimiphos-methyl, azinphos-ethyl, dimethoate, chlorfenvinphos, disulfoton, parathion-methyl, bromophos-methyl, malathion, and monocrotophos; all compounds were purchased form (Sigma-Aldrich). Isolated colonies were tested by regrowth on ligand-containing media and by dose response using X-gal staining and Sanger sequenced (see FIG. 13a-d).
Recombination-based mutagenesis of hit receptors was used to generate subsequent molecular diversity for selection-based optimization experiments, using the same general strategy across all scaffolds utilized. […] The resulting shuffled DNA fragments were cloned into pBD, transformed into E. coli, colonies collected, and plasmids extracted.

## 724: stabilized dead 6 × His-MBP-ΔN-HAB1 variant with D243A instead of D204A [compound 724]
[1]; Biorep 1
  Phosphatase Activity (% of 636 at 50 mM p-NPP): 0.22 ± 0.005%
[1]; Biorep 2
  Phosphatase Activity (% of 636 at 50 mM p-NPP): 0.01 ± 0.001%
[2]; Biorep 1
  Tm, app (° C.): 54.1 °C
[2]; Biorep 2
  Tm, app (° C.): 44.8 °C

## 725: 6 × His-MBP-ΔN-HAB1 (C186S, D199A, D204A, S209V, D287E, S292N, S342A, N377A, N439S) [compound 725]
[1]; Biorep 1
  Phosphatase Activity (% of 636 at 50 mM p-NPP): 0.25 ± 0.01%
[1]; Biorep 2
  Phosphatase Activity (% of 636 at 50 mM p-NPP): 0.003 ± 0.004%
[2]; Biorep 1
  Tm, app (° C.): 50.7 °C
[2]; Biorep 2
  Tm, app (° C.): 45.5 °C

## CC1=CC(=O)CC(C)(C)[C@@]1(O)/C=C/C(C)=C\C(=O)O [ABA, abscisic acid]
PYR1^M/ΔN-HAB1^T+; global nonlinear fit, PYR1^M/ABA/ΔN-HAB1^T+ system, Biorep 1, read-out: KD1
  Kd: 820 nM
PYR1^M/ΔN-HAB1^T+; global nonlinear fit, PYR1^M/ABA/ΔN-HAB1^T+ system, Biorep 2, read-out: KD1
  Kd: 780 nM
PYR1^M/ΔN-HAB1^T+; global nonlinear fit, PYR1^M/ABA/ΔN-HAB1^T+ system, Biorep 3, read-out: KD1
  Kd: 2090 nM
PYR1^M/ΔN-HAB1^T+; global nonlinear fit, KD2 = binding constant of HAB1 variant (ΔN-HAB1^T+) for PYR1^M with ABA, Biorep 1, read-out: KD2
  Kd: 8 nM
PYR1^M/ΔN-HAB1^T+; global nonlinear fit, KD2 = binding constant of HAB1 variant (ΔN-HAB1^T+) for PYR1^M with ABA, Biorep 2, read-out: KD2
  Kd: 4 nM
PYR1^M/ΔN-HAB1^T+; global nonlinear fit, KD2 = binding constant of HAB1 variant (ΔN-HAB1^T+) for PYR1^M with ABA, Biorep 3, read-out: KD2
  Kd: 2 nM
PYR1^M/ΔN-HAB1^T+; PYR1^M/ABA/ΔN-HAB1^T+ system, Biorep 1
  Amax [AU 450 nm]: 2 AU 450 nm
PYR1^M/ΔN-HAB1^T+; PYR1^M/ABA/ΔN-HAB1^T+ system, Biorep 2
  Amax [AU 450 nm]: 2.8 AU 450 nm
PYR1^M/ΔN-HAB1^T+; PYR1^M/ABA/ΔN-HAB1^T+ system, Biorep 3
  Amax [AU 450 nm]: 2 AU 450 nm
PYR1^M/ΔN-HAB1^T+; optimized ELISA-like system, PYR1^M
  lower limit of detection (LOD): 2 nM and 0.7 ng/mL
PYR1^M/ΔN-HAB1^T+; optimized ELISA-like system, PYR1^M, read-out: effective Kd
  Kd: 9.7 nM

## CCOP(=O)(OCC)O/C(=C\Cl)c1ccc(Cl)cc1Cl [chlorfenvinphos]
[3]; after optimization
  affinity of receptors obtained, but not lower: 10 µM

## CNC(=O)CSP(=S)(OC)OC [dimethoate]
[3]
  affinity of receptors obtained, but not lower: 10 µM

## WT (636): 6 × His-MBP-ΔN-HAB1 (C186S, C274S)
[1]; Biorep 1
  Phosphatase Activity (% of 636 at 50 mM p-NPP): 100 ± 0.4%
[1]; Biorep 2
  Phosphatase Activity (% of 636 at 50 mM p-NPP): 100 ± 0.8%
[2]; Biorep 1
  Tm, app (° C.): 44.8 °C
[2]; Biorep 2
  Tm, app (° C.): 38.1 °C
